Experimental data reported in patent publication US20250340545A1, “TETRAHYDROISOQUINOLINE COMPOUND, PREPARATION METHOD THEREFOR, PHARMACEUTICAL COMPOSITION CONTAINING SAID COMPOUND, AND USE THEREOF” (SHANGHAI INSTITUTE OF MATERIA MEDICA, CHINESE ACADEMY OF …, priority 2022, published 2025).

Legend:
[1] = biological target: T1, human RXFP4 (hRXFP4-CHO stably transfected cell line) (Homo sapiens, UniProt Q8TDU9); test: Measurement of intracellular cAMP concentration (in vitro RXFP4 agonist activity); format: cell-based; details: hRXFP4-CHO cells, 500 nM Forskolin; for Emax ± S.E.M. (% INSL5): relative to INSL5
T1 construct: expressed in transfected cells; host or cells: CHO
T1 sequence (Q8TDU9 whole entry): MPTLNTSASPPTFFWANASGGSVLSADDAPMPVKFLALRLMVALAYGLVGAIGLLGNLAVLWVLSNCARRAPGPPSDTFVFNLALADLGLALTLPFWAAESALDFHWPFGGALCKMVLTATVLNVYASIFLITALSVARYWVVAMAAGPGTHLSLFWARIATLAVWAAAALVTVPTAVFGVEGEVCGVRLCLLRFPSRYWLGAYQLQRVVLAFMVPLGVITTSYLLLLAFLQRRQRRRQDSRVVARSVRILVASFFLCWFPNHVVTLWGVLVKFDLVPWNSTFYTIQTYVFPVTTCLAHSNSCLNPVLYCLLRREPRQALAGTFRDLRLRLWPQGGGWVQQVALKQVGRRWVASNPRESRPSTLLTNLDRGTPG
Method: 1. Detection Method: Measurement of Intracellular cAMP Concentration
CAMP detection kit (PerkinElmer), cell culture box (Thermo Fisher Scientific), EnVision multifunctional enzyme-linked immunosorbent assay (PerkinElmer), Forskolin (Sigma Aldrich), IBMX (Sigma Aldrich), DSMO (Sigma Aldrich), hINSL5 (Genova, human insulin-like peptide 5), hRXFP4-CHO stably transfected cell line for stable expression of human RXFP4, and test compound.
Stably transfected hRXFP4-CHO cells were seeded at 2.5×10^5 cells/mL the day before the experiment to maintain a growth density of 70%-80% in the culture dish the next day. On the day of the experiment, cells were digested with trypsin free digestion solution or 0.02% EDTA PBS solution, centrifugated, the supernatant was discarded, and cAMP experimental buffer (0.5 mM IBMX+5 mM HEPES+0.1% BSA) was prepared using 1×HBSS (calcium and magnesium free) solution. The cells were resuspended and inoculated to a 384 well plate at 4000 cells per well. The compound which was diluted with DMSO to different concentrations were added to the above 384 well plate. At the same time, 500 nM Forskolin was added and incubated at room temperature for 40 minutes. Then Eu cAMP and ULight anti cAMP working solutions were added according to the cAMP detection kit instructions. After incubation at room temperature for 40 minutes, an EnVision multifunctional enzyme-linked immunosorbent assay reader was used to read the results (excitation wavelength of 320 or 340 nm, detection emission wavelength of 665 nm).

[2] = biological target: T2, RXFP4 (HRXFP4 CHO cells) (Homo sapiens, UniProt Q8TDU9); test: Ligand receptor affinity detection (Eu-R3/I5 competition on HRXFP4 CHO cells); format: binding; details: for Ki: 5 nM Eu-R3/I5, 1 hour room temperature, read-out: pKi ± S.E.M. (converted); for Span ± S.E.M. (% R3/I5): 5 nM Eu-R3/I5, relative to R3/I5
T2 construct: expressed in transfected cells; host or cells: CHO
T2 sequence (Q8TDU9 whole entry): as above
Method: 2. Detection Method: Ligand Receptor Affinity Detection
Stably transfected HRXFP4 CHO cells and Eu—R3/I5 (lanthanide element europium labeled chimeric peptide R3/I5), BMG POLARstar reader (BMG Labtech), and test compound.
HRXFP4 CHO was introduced into a 96 well plate at 80000 cells per well. After 24 hours of cell culture in the incubator, discarded the supernatant, and washed once with PBS, then a binding buffer containing 1% BSA was added and incubated at room temperature for 1 hour. The cell plate was then washed once with PBS, followed by the addition of different concentrations of positive controls and test compounds, and incubated at room temperature with 5 nM Eu—R3/I5 for 1 hour.
After washing the cell plate once with PBS, an enhancement solution was added. After 45 minutes, the fluorescence value was measured using a BMG POLARstar reader (excitation wavelength of 340 nm, detection emission wavelength of 614 nm).

EC50 ([1]; 40 minutes room temperature) [nM] | Emax ± S.E.M. (% INSL5) [1] [% INSL5] | Ki [2] [nM] | pEC50 ± S.E.M. ([1]; 40 minutes room temperature) | Span ± S.E.M. (% R3/I5) [2] [% R3/I5] | Structure (SMILES)
 | 98.76 ± 5.71 | 58.9 | 7.24 ± 0.12 | 81.87 ± 4.47 | CCOc1cc2c(cc1OC)CCN(C(=O)N1CCOCC1)[C@H]2CCc1c[nH]c2ccc(OC)cc12 [(S)-A1, (S)-(7-ethoxy-6-methoxy-1-(2-(5-methoxy-1H-indol-3-yl)ethyl)-3,4-dihydroisoquinolin-2(1H)-yl)(morpholino)methanone]
204 | 101.82 ± 9.08 | 209 |  | 86.26 ± 6.71 | CCOc1cc2c(cc1OC)CCN(C(=O)N1CCC(F)CC1)C2CCc1c[nH]c2ccc(OC)cc12 (stereo not drawn) [Compound A3, (4-fluoropiperidin-1-yl) (7-ethoxy-6-methoxy-1-(2-(5-methoxy-1H-indol-3-yl)ethyl)-3,4-dihydroisoquinolin-2(1H)-yl)methanone]
10200 | 56.43 ± 4.70 | > 100000 |  |  | CCOc1cc2c(cc1OC)CCN(C(=O)N1CC[S+]([O-])CC1)C2CCc1c[nH]c2ccc(OC)cc12 (stereo not drawn) [Compound A5, (7-ethoxy-6-methoxy-1-(2-(5-methoxy-1H-indol-3-yl)ethyl)-3,4-dihydroisoquinolin-2(1H)-yl)(1-oxothiomorpholinyl)methanone]
27.5 | 82.15 ± 4.95 | 129 |  | 92.06 ± 3.95 | CCOc1cc2c(cc1OC)CCN(C(=O)N1CCOCC1)C2CCc1c[nH]c2ccc(C#N)cc12 (stereo not drawn) [Compound A57, 3-(2-(7-ethoxy-6-methoxy-2-(morpholine-4-carbonyl)-1,2,3,4-tetrahydroisoquinolin-1-yl)ethyl)-1H-indole-5-carbonitrile]
10000 | 58.19 ± 7.80 | > 100000 |  |  | CCOc1cc2c(cc1OC)CCN(C(=O)N1CCOCC1)C2CCc1c[nH]c2ncccc12 (stereo not drawn) [Compound A69, (1-(2-(1H-pyrrolo[2,3-b]pyridin-3-yl)ethyl)-7-ethoxy-6-methoxy-3,4-dihydroisoquinolin-2(1H)-yl) (morpholino)methanone]
3160 | 43.69 ± 7.43 | > 100000 |  |  | COc1cc2c(cc1OC)[C@H](CCc1c[nH]c3cc(C)ccc13)N(C(=O)C1CCOCC1)CC2 [Compound A76, (S)-(6,7-dimethoxy-1-(2-(6-methyl-1H-indol-3-yl)ethyl)-3,4-dihydroisoquinolin-2(1H)-yl) (tetrahydro-2H-pyran-4-yl)methanone]
437 | 25.96 ± 5.50 | > 100000 |  |  | COc1cc2c(cc1OC)C(CCc1c[nH]c3ccccc13)N(C(=O)c1ccncc1)CC2 (stereo not drawn) [Compound A77, (1-(2-(1H-indol-3-yl)ethyl)-6,7-dimethoxy-3,4-dihydroisoquinolin-2(1H)-yl)(pyridin-4-yl)methanone]
 |  | > 100000 |  |  | COc1cc2c(cc1OC)C(Cc1c[nH]c3ccccc13)N(CC1CCOCC1)CC2 (stereo not drawn) [Compound A83]

Further lines, the molecule ahead of its results:

Structure (SMILES) | EC50 ([1]; 40 minutes room temperature) [nM] | Emax ± S.E.M. (% INSL5) [1] [% INSL5] | Ki [2] [nM] | pEC50 ± S.E.M. ([1]; 40 minutes room temperature) | Span ± S.E.M. (% R3/I5) [2] [% R3/I5]
CCOc1cc2c(cc1OC)CCN(C(=O)N1CCOCC1)[C@@H]2CCc1c[nH]c2ccc(OC)cc12 [(R)-A1, (R)-(7-ethoxy-6-methoxy-1-(2-(5-methoxy-1H-indol-3-yl)ethyl)-3,4-dihydroisoquinolin-2(1H)-yl)(morpholino)methanone] | 933 | 60.14 ± 10.64 | > 100000 |  | 
CCOc1cc2c(cc1OC)CCN(C(=O)N1CCOCC1)C2CCc1c[nH]c2ccc(OC)cc12 (stereo not drawn) [Compound A1, (7-ethoxy-6-methoxy-1-(2-(5-methoxy-1H-indol-3-yl)ethyl)-3,4-dihydroisoquinolin-2(1H)-yl) (morpholino)methanone] | 87.1 | 87.64 ± 4.58 | 148 |  | 88.98 ± 6.07
CCOc1cc2c(cc1OC)CCN(C(=O)N1CCC(F)(F)CC1)C2CCc1c[nH]c2ccc(OC)cc12 (stereo not drawn) [Compound A4, (4,4-difluoropiperidin-1-yl) (7-ethoxy-6-methoxy-1-(2-(5-methoxy-1H-indol-3-yl)ethyl)-3,4-dihydroisoquinolin-2(1H)-yl)methanone] | 57.5 | 62.00 ± 5.42 | 631 |  | 66.34 ± 7.29
CCOc1cc2c(cc1OC)CCN(C(=O)N1CCS(=O)(=O)CC1)C2CCc1c[nH]c2ccc(OC)cc12 (stereo not drawn) [Compound A6, (1,1-dioxothiomorpholino) (7-ethoxy-6-methoxy-1-(2-(5-methoxy-1H-indol-3-yl)ethyl)-3,4-dihydroisoquinolin-2(1H)-yl)methylmethanone] | 9330 | 51.74 ± 6.72 | > 100000 |  | 
CCOc1cc2c(cc1OC)CCN(C(=O)c1ccccn1)C2CCc1c[nH]c2ccc(OC)cc12 (stereo not drawn) [Compound A9, (7-ethoxy-6-methoxy-1-(2-(5-methoxy-1H-indol-3-yl)ethyl)-3,4-dihydroisoquinolin-2(1H)-yl) (pyridin-2-yl)methanone] | 14800 | 44.09 ± 5.25 | > 100000 |  | 
COc1ccc2[nH]cc(CCC3c4cc(OCc5ccccc5)c(OC)cc4CCN3C(=O)N3CCOCC3)c2c1 (stereo not drawn) [Compound A30, (7-(benzyloxy)-6-methoxy-1-(2-(5-methoxy-1H-indol-3-yl)ethyl)-3,4-dihydroisoquinolin-2(1H)-yl) (morpholino)methanone] | 427 | 82.33 ± 8.47 | 851 |  | 81.61 ± 7.65
CCOc1cc2c(cc1OC)CCN(C(=O)N1CCOCC1)C2CCc1c[nH]c2c(C)cc(OC)cc12 (stereo not drawn) [Compound A58, (7-ethoxy-6-methoxy-1-(2-(5-methoxy-7-methyl-1H-indol-3-yl)ethyl)-3,4-dihydroisoquinolin-2(1H)-yl)(morpholino) methanone] | 447 | 92.58 ± 7.46 | > 100000 |  | 
CCOc1cc2c(cc1OC)CCN(C(=O)N1CCOCC1)C2CCc1c[nH]c2c(CC)cccc12 (stereo not drawn) [Compound A60, (7-Ethoxy-1-(2-(7-ethyl-1H-indol-3-yl)ethyl)-6-methoxy-3,4-dihydroisoquinolin-2(1H)-yl) (morpholino)methanone] | 417 | 72.49 ± 8.04 | 1700 |  | 75.02 ± 7.56
CCOc1cc2c(cc1OC)CCN(C(=O)c1cscn1)[C@H]2CCc1c[nH]c2ccc(OC)cc12 [Compound A80, (S)-(7-ethoxy-6-methoxy-1-(2-(5-methoxy-1H-indol-3-yl)ethyl)-3,4-dihydroisoquinolin-2(1H)-yl) (thiazol-4-yl)methanone] |  |  | > 100000 |  | 
